{"source": "patent EP0567613B1", "about": "“COMPOSITIONS FOR THERAPY AND PREVENTION OF CANCER” (The Government of the United States of America, as …, priority 1991, dated 1993)", "key": {"[1]": {"test_system": "C3H 10T1/2 Cells", "test": "Tumorigenicity of treated cells in athymic mice", "details": "NaPA 1.6 mg/ml continuous, time 13 weeks", "protocol": "Premalignant cells (3-4 x 10^5) were plated in 75 cm^2 dishes and 5-AzadC 0.1 µM was added to the growth medium at 20 and 48 hrs after plating. The cells were then subcultured in the absence of the nucleoside analog for an additional seven weeks. […] For the tumorigenicity assay, 4-5 week-old female athymic nude mice were inoculated s.c. with 1 x 10^6 cells and observed for tumor growth at the site of injection."}, "[2]": {"test_system": "collagenase type IV", "test": "Northern blot analysis in PC3 cells", "assay_type": "cell-based, human", "details": "NaPA treated PC3 cells"}, "[3]": {"test_system": "Astrocytoma U373", "test": "Tumor cell growth / proliferation", "assay_type": "cell-based", "details": "Homo sapiens"}, "[4]": {"test_system": "NIH 3T3 cells carrying activated EJras oncogene", "test": "Prevention of neoplastic transformation, oncogene transfer (ras-transformed foci)", "assay_type": "cell-based", "details": "treatment initiated 24-48 hr after oncogene transfer, scored 14-21 days later", "excerpt": "Left: Untreated control cells at about 3 weeks after DNA transfer. Middle: control of cells with as oncogenes, showing the rate of spontaneous transformation. Right: Oncogene-transfected cells, […] with NaPA.\nThe effect was reversible upon cessation of treatment. In treated humans, however, the fate of the premalignant cells may be substantially different due to involvement of humoral and cellular immunity (see below)."}}, "data": [{"smiles": "O=C([O-])Cc1ccccc1.[Na+]", "note": "[NaPA, sodium phenylacetate]", "values": [{"measurement": "Tumors Diameter", "setting": "[1]", "value": "0 mm ± S.D."}, {"measurement": "Tumors Incidence", "setting": "[1]; 1 x 10^6 cells s.c.", "value": "0/8"}, {"measurement": "expression of collagenase type IV", "setting": "[2]", "value": "inhibited the expression of collagenase type IV"}, {"measurement": "IC50", "setting": "[3]; U373 MG, read-out: concentration causing about 50% inhibition of growth", "value": "400 to 800", "unit": "µg/mL"}, {"measurement": "inhibition at 800 µg/mL", "setting": "[3]; read-out: % Inhibition by NaPA 0.8 mg/ml, U373, 0.8 mg/ml", "value": "≥ 50", "unit": "%"}, {"measurement": "formation of ras-transformed foci", "setting": "[4]", "value": "dose-dependent reduction in the formation of ras-transformed foci"}]}]}
